This note sets out measurements from PubChem BioAssay (NCI).

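Briefly, cells in 96-well plates were exposed to five compound concentrations for 48 h, and endpoints were estimated by linear interpolation. GI50 is the concentration that inhibits growth by half. At the TGI there is no net growth.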

Some test systems named below: RXF 393 renal; UO-31 renal; RPMI-8226 leukemia; T-47D breast; LOX IMVI melanoma; NCI-H226 lung; HCT-15 colon; NCI-H522 lung; SF-295 CNS; SK-MEL-2 melanoma; SN12C renal; SK-OV-3 ovarian; HL-60(TB) leukemia; U251 CNS; SK-MEL-5 melanoma; MOLT-4 leukemia; K-562 leukemia; NCI/ADR-RES ovarian; CCRF-CEM leukemia.
Holding throughout (assay): inhibition of tumour cell growth, NCI panel, 48 h

As to `CC(C)C(Cl)CC/C(CBr)=C(\Cl)CCl` (stereo not given), the TGI in the assay on RXF 393 renal is 11.3 µM; in the assay with UO-31 renal it was 30.8 µM; in the assay with RPMI-8226 leukemia it was 5 µM; with T-47D breast, 3.29 µM; with LOX IMVI melanoma, 1.2 µM; with NCI-H226 lung it was 22.2 µM. The TGI in the assay on HCT-15 colon worked out at 10.4 µM; with NCI-H522 lung, 2.49 µM; with SF-295 CNS, 30.6 µM; in the assay with SK-MEL-2 melanoma, 5.64 µM; with SN12C renal it was 10.2 µM; with SK-OV-3 ovarian it was 17.8 µM. Besides, the TGI was 2.24 µM with HL-60(TB) leukemia; 23.1 µM in the assay with U251 CNS; 5.95 µM in the assay on SK-MEL-5 melanoma; greater than 20.3 µM in the assay on MOLT-4 leukemia; 3.69 µM in the assay with K-562 leukemia; greater than 79.1 µM in the assay on NCI/ADR-RES ovarian.

In the case of `C/C(=C/CNc1ncnc2c1ncn2CCC#N)CO`, the TGI in the assay on RXF 393 renal, in the assay on UO-31 renal, in the assay with RPMI-8226 leukemia, with T-47D breast, in the assay on LOX IMVI melanoma and in the assay with NCI-H226 lung was greater than 100 µM each time. Moreover, the TGI with CCRF-CEM leukemia, in the assay with NCI-H522 lung, in the assay with SF-295 CNS, in the assay on SN12C renal, with SK-OV-3 ovarian and in the assay on HL-60(TB) leukemia was greater than 100 µM in each case. The TGI in the assay with SK-MEL-5 melanoma, in the assay with MOLT-4 leukemia, in the assay on K-562 leukemia and in the assay with NCI/ADR-RES ovarian was greater than 100 µM throughout.

With `COc1ccc2c(c1)/C(=C\c1cccc(/C=C3/C(=O)Nc4ccc(OC)cc43)n1)C(=O)N2`, the TGI in the assay on RXF 393 renal is 2.89 µM; with UO-31 renal, 3.81 µM; in the assay with T-47D breast it was 2.53 µM; with LOX IMVI melanoma, 1.24 µM; in the assay with NCI-H226 lung, 4.16 µM; in the assay on HCT-15 colon, greater than 25.1 µM. The TGI was greater than 38 µM in the assay on CCRF-CEM leukemia; 6.9 µM in the assay on NCI-H522 lung; 30.3 µM in the assay on SF-295 CNS; 15.5 µM in the assay with SK-MEL-2 melanoma; 4.91 µM in the assay on SN12C renal; 17.3 µM in the assay on SK-OV-3 ovarian. Further, the TGI in the assay on HL-60(TB) leukemia is 2.05 µM; in the assay on U251 CNS it was 5.83 µM; in the assay on SK-MEL-5 melanoma, 2.24 µM; with MOLT-4 leukemia, 0.802 µM; in the assay with K-562 leukemia it was 2.02 µM; in the assay with NCI/ADR-RES ovarian, greater than 58.8 µM. Further, the GI50 with NCI-H226 lung is 1.54 µM.

`COC(=O)/C(C#N)=C(\Nc1ccccc1)N1CCCCC1`: the TGI in the assay with RXF 393 renal, in the assay with UO-31 renal, in the assay with RPMI-8226 leukemia, in the assay on T-47D breast, in the assay on LOX IMVI melanoma and in the assay on NCI-H226 lung was greater than 100 µM each time. In addition, the TGI in the assay with HCT-15 colon, in the assay on NCI-H522 lung, in the assay on SF-295 CNS, in the assay on SK-MEL-2 melanoma, with SN12C renal and with SK-OV-3 ovarian was greater than 100 µM each time. The TGI in the assay with HL-60(TB) leukemia, in the assay with U251 CNS, in the assay on SK-MEL-5 melanoma, in the assay with MOLT-4 leukemia, in the assay on K-562 leukemia and in the assay on NCI/ADR-RES ovarian was greater than 100 µM each time.

As to `CNC(=S)NNC1=NCCCCN1`, the TGI in the assay on RXF 393 renal, in the assay with UO-31 renal, in the assay on RPMI-8226 leukemia, in the assay on T-47D breast, in the assay on LOX IMVI melanoma and in the assay with NCI-H226 lung was greater than 100 µM each time. The TGI in the assay on HCT-15 colon, in the assay on CCRF-CEM leukemia, in the assay on NCI-H522 lung, in the assay on SF-295 CNS, in the assay on SK-MEL-2 melanoma and in the assay with SK-OV-3 ovarian was greater than 100 µM in each case. The TGI with HL-60(TB) leukemia, with U251 CNS, with SK-MEL-5 melanoma, in the assay on MOLT-4 leukemia, with K-562 leukemia and in the assay on NCI/ADR-RES ovarian was greater than 100 µM throughout.

With `COc1c(O)cc2c(c1O)C1O[C@H](CO)C(O)[C@H](O)[C@H]1OC2=O` (stereo not given in full), the TGI in the assay on RXF 393 renal, in the assay with RPMI-8226 leukemia, in the assay on T-47D breast, in the assay on LOX IMVI melanoma, in the assay on NCI-H226 lung and with HCT-15 colon was greater than 100 µM in each case. Besides, the TGI in the assay with CCRF-CEM leukemia, in the assay with NCI-H522 lung, in the assay on SF-295 CNS, in the assay on SK-MEL-2 melanoma, in the assay with SN12C renal and in the assay with SK-OV-3 ovarian was greater than 100 µM in each case. The TGI in the assay with HL-60(TB) leukemia, with U251 CNS, with SK-MEL-5 melanoma, in the assay on MOLT-4 leukemia, with K-562 leukemia and with NCI/ADR-RES ovarian was greater than 100 µM throughout.

As to `Cc1cc(NCC2CC/C(=C\C=C\c3ccccc3)C2=O)no1` (stereo not given), the TGI in the assay with RXF 393 renal was greater than 100 µM; in the assay on UO-31 renal, greater than 100 µM; in the assay with RPMI-8226 leukemia, 88.8 µM; in the assay on T-47D breast it was greater than 100 µM; with LOX IMVI melanoma, greater than 100 µM; with NCI-H226 lung, greater than 100 µM. In addition, the TGI with HCT-15 colon, in the assay with CCRF-CEM leukemia, with NCI-H522 lung, in the assay with SF-295 CNS, in the assay with SN12C renal and in the assay on SK-OV-3 ovarian was greater than 100 µM throughout. Further, the TGI in the assay on HL-60(TB) leukemia, in the assay with U251 CNS, with SK-MEL-5 melanoma, in the assay with MOLT-4 leukemia, in the assay on K-562 leukemia and in the assay on NCI/ADR-RES ovarian was greater than 100 µM in each case.
